Source: a melting point compilation (Tetko et al.; mined from patent text by program, amines drawn as free bases though some values may be those of a salt)

SMILES | melting point
CC1CCC2C(C)(C)C(=O)OC3OC4(C)CCC1C32OO4 (single isomer, unassigned; (+)) | 117 to 118 °C
COC(=O)[C@H](Cc1ccc(N)cc1)NC(=O)OC(C)(C)C | 86 to 89 °C
Cc1nc(C#N)nc(NCC(F)(F)F)c1I | 103 to 105 °C
CCc1nc(/C=C/c2cn(-c3ccccc3)nc2OCc2ccc(OCc3nc(-c4cccc([N+](=O)[O-])c4)oc3C)c(OC)c2)cs1 | 127 to 129 °C
CN(CC(N)=O)c1nccc(-c2ccc(C(=O)NCCc3ccc4[nH]cc(C(=N)N)c4c3)cc2)n1 | 96 to 98 °C
CC(=O)N1CCC(c2n[nH]c3cc(Cl)ccc23)CC1 | 172 to 174 °C
CCc1ccc2cc(OC)cc(NC(C)CCCN)c2n1 (configuration not stated) | 111 to 114 °C
CC#CCOc1cc(-c2ccc(F)cc2F)ncn1 | 63.9 °C
CN(C)C(=O)NCCc1cccc(-c2nc(=O)c3ccccc3s2)n1 | 190 to 191 °C
CCOCC(=O)SSc1ccc([N+](=O)[O-])cc1C(Cl)(Cl)Cl | 89 °C
CC(C)(C)OC(=O)NCCCCNC(=O)COc1cccc(C(F)(F)F)c1 | 86 °C
NC(=O)Cc1c[nH]c2ncccc12 | 180 to 181 °C
COc1ccc2c(c1)c(CCC(=O)O)cn2S(=O)(=O)c1ccc(C)cc1 | 172 to 174 °C
CC(N1C(=O)C(=O)N(c2ccc(C(C)(C)C)cc2)C1=S)C(C)(C)C (configuration not stated) | 209 to 210 °C
O=C1c2c(O)ccc(O)c2C(=O)c2c(NCCN3CCCC3CO)ccc(NCCN3CCCC3CO)c21 (configuration not stated) | 202 to 204 °C
COc1ccc(C)cc1NC(=O)Nc1ccc(N2CCN(C(=O)Nc3ccc(OCCO)cc3C(F)(F)F)CC2)c(C#N)c1 | 135 to 137 °C
CCOC(=O)c1ccc(C#CC(O)c2cc(C(C)(C)C)cc(C(C)(C)C)c2OCOC)cc1 (configuration not stated) | 89 to 91 °C
CCOC(=O)C1=C(C)Nc2nc(N3CCOCC3)nc(N3CCOCC3)c2C1c1ccccc1C#N (configuration not stated) | 248 °C
Cc1cccc(N2CC(c3cccc(-c4ccc(S(C)(=O)=O)cc4)c3)=CN2)n1 | 95 to 97 °C
N#Cc1ccc(Oc2cccc(N)c2)cc1C#N | 171 to 172 °C
Cc1[nH]c(=O)c(-c2csc(-c3ccnc(NCc4ccccn4)c3)n2)cc1C(=O)NCc1ccccn1 | > 260 °C
CCc1c(-c2ccc(O)cc2)c2c(COCCCCCN3CCCCC3)cc3c(O)ccc1n32 | 120 to 121 °C
COc1cc(Cl)cc(OC(=O)c2cc3cc(CCl)ccc3oc2=O)c1 | 184 to 185 °C

Results, then the compound that gave them:

melting point | SMILES
56 to 58 °C | COc1ccc(C(=O)CCCCc2ccccc2)cc1OC
153 to 155 °C | CC(C)C(NS(=O)(=O)c1ccc(-c2cccc(CNC(=O)c3nc4ccccc4c(=O)[nH]3)c2)cc1)C(=O)NO (configuration not stated)
230 to 232 °C | CN(Cc1ccc(CCn2cnc3cc(-c4ccc(Cl)cc4)sc3c2=O)cc1)S(C)(=O)=O
146 to 148 °C | Cc1cnc(C2(CCCCN3CCC(N4Cc5ccccc5C4=O)CC3)c3ccccc3-c3ccccc32)s1
187 to 189 °C | Cc1c(C)c2c3c(cc(C)c2[nH]c1=O)CC(CN=[N+]=[N-])O3 (configuration not stated)
150 to 152 °C | O=C(Oc1cc([N+](=O)[O-])cc([N+](=O)[O-])c1O)c1ccccc1
189 to 190 °C | CCCCS(=O)(=O)Nc1ccc(Oc2cc(C)cc3cccnc23)cc1
150 to 153 °C | O=C1NCCCN1C1CCN(CC(O)COc2ccccc2Cl)CC1 (configuration not stated)
251 to 252 °C | O=C(O)c1ccc2c(c1)NCc1ccccc1O2
135 to 141 °C | CC(C)(C)c1cccc(S(=O)(=O)n2c(CCCC(=O)O)cc3cc(C(F)(F)F)ccc32)c1
180 °C | Cc1c(NC(=O)c2ccc(OCC3CC3)cc2)ccc2cc(CNCC(C)(C)O)n(C)c12
144 to 150 °C | COC(=O)c1cc(O)cc(C(=O)CS(C)=O)c1 (configuration not stated)
77 to 81 °C | CCC(C)NC(C(=O)NCCCC(c1ccc(F)cc1)c1ccc(F)cc1)C(C)C (configuration not stated)
157 to 159 °C | CC[C@H]1COC(=O)N1c1nc(-c2ccc(C#N)cc2)c(F)s1
